Reference: patent US20170073306A1, “POTENT INHIBITORS OF HUMAN CARBONIC ANHYDRASE II AND BOVINE CARBONIC ANHYDRASE II AND THEIR MECHANISM OF ACTION” (priority 2015, published 2017)
Like-named read-outs stand apart in the source and are kept apart here.

What was measured:
[1] = biological target: T1, Bovine Carbonic Anhydrase-II (Bos taurus, UniProt P00921); test: Kinetics studies (Lineweaver-Burk, Dixon plots) against Bovine Carbonic Anhydrase-II; type: biochemical; design: Vmax app: unit not given here; details: for Type of Inhibition: Lineweaver-Burk / Dixon plots; for Vmax: enzyme Vmax without inhibitor; for Vmax app: apparent Vmax with inhibitor (0.2-0.00625 μM)
T1 construct: pure bovine erythrocyte CA-II; from tissue; host or cells: bovine erythrocytes
Method: FIG. 2B depicts the double reciprocal plot for Ki determination which is between Slope Vs Inhibitor Conc.
FIG. 3B depicts the double reciprocal plot for Ki determination which is between Slope Vs Inhibitor Conc.
Kinetics studies were performed for each analogue. […] The Grafit version 7.0 was used for the construction of Lineveawer-Burk plots and their secondary replots.

MTT cytotoxicity assay = type: cell-based; details: mouse, 3T3 mouse fibroblast cells, 3T3 cells, 50% growth inhibition, read-out: Cytotoxicity IC50 ± SD
Method: Cytotoxicity studies were performed using a colorimetric assay that measures the reduction of 3-(4,5-dimethythiazol-2-yl)-2,5-diphenyl tetrazolium bromide (MTT) (yellow in color), by mitochondrial enzyme (i.e. succinate dehydrogenase). The MTT enters into the mitochondria of cell, where it is reduced to an insoluble formazan salt (purple in color). The extent of MTT reduction to formazan within cells was measured spectrophotometrically. As reduction of MTT can only occur in metabolically active cells the level of activity is actually a measure of the viability of the cells^22.
Mouse fibroblast cell line 3T3 was cultured in DMEM, supplemented with 5% of FBS, 100 IU/ml of penicillin and 100 μg/ml of streptomycin, and kept at 37° C. in 5% CO2 incubator. For the preparation of cell culture 100 μL/well of cell solution (5×10^4 cells/ml) was added into 96-well plate. The plate was incubated for overnight, and fresh medium was added after the removal of old medium. The test compounds were also added in different concentrations into the plate and plate was again incubated for 48 hrs. After the completion of this incubation period 200 μL MTT (0.5 mg/ml) was added and plate was again incubated for 4 hrs, after this final incubation 100 μL of DMSO was added to each well. The level of MTT reduction to formazan was evaluated by change in absorbance at 540 nm using a micro plate reader (Spectra Max plus, Molecular Devices, CA, USA).

[2] = biological target: T2, Bovine Carbonic Anhydrase-II (bovine erythrocyte CA-II) (Bos taurus, UniProt P00921); test: Bovine carbonic anhydrase-II inhibition, 4-nitrophenyl acetate spectrophotometric assay; type: biochemical
T2 construct: pure bovine erythrocyte CA-II; from tissue; host or cells: bovine erythrocytes
Method: (§1) Nineteen different analogues of benzamide sulfonamides were evaluated for carbonic anhydrase-II inhibition. The rate of catalyzed reaction was monitored by the amount of product formation by using the chromogenic substrate i.e., 4-nitrophenyl acetate.
4-Nitrophenyl acetate (4-NPA) is a colorless compound which is used as a substrate in carbonic anhydrase inhibition assay. The reaction involves the hydrolysis of 4-nitrophenyl acetate into […] and 4-nitrophenol a yellow colored compound. During this experiment, HEPES-tris buffer was used at 20 mM concentration with pH 7.4.
After 15 min of incubation of the enzyme with the test compound, the substrate was added to initiate the reaction. The reaction was carried out in triplicate with different concentrations of test compounds was used.
In this assay protocol, the reaction was performed by using a 96-well flat bottom plate.
The amount of product formation was measured at 400 nm for 30 min with 1 min interval, multiplate reader SPECTRA max 340 (Molecular Devices, CA, USA) was used to monitor the product formation.
The enzyme inhibitory activities were calculated using the following formula:
% Inhibition=100−(O.D of test/O.D of control)*100
(§2) Where test is the enzyme activity with sample and control is the enzyme activity without sample. The IC50 of the compounds were calculated by using EZ-Fit Enzyme Kinetic Program (Perrella Scientific Inc. Amhrest, U.S.A).

[3] = biological target: T3, Human Carbonic Anhydrase-II (human erythrocyte CA-II) (Homo sapiens, UniProt P00918); test: HCA-II inhibitory activity, 4-nitrophenyl acetate spectrophotometric assay; type: biochemical; details: 4-nitrophenyl acetate 0.7 mM, pH 7.4, 25° C., 15 min preincubation; read-out: IC50 ± S.E.M. HCA-II
T3 construct: purified human erythrocyte CA-II; from tissue; host or cells: human erythrocytes
Method: as §1
Hydrolysis of 4-NPA (a colorless compound): yields 4-nitrophenol and […]. The reaction is monitored by quantifying the formation of 4-nitrophenol, a yellow colored compound.
In successive experiments, HEPES-tris was used as a buffer for the reaction at final concentration of 20 mM, with 7.4 pH. The total reaction volume of 200 μL includes, 140 μL of the HEPES-tris, 20 μL of test compound diluted in DMSO (20 μL of DMSO as a control sample), 20 μL of purified human erythrocyte CA-II (0.1 mg/mL) prepared in deionized water and 20 μL of a solution of 4-NPA (0.7 mM diluted in ethanol). Adhesion of enzyme with the plastic-ware was avoided by the addition of bovine serum albumin (1 mg/mL).
The 20 μL of test compound was incubated with enzyme for a period of 15 min. The rate of product formation was monitored with the addition of 20 μL substrate prepared in ethanol at a final concentration of 0.7 mM 4-nitrophenyl acetate at 25° C. for a period of 30 min with regular interval of 1 min.
The assay was performed in triplicates by using 96-well flat bottom plate.
The enzyme inhibitory activities were calculated using the following formula: […]
as §2

[4] = from secondary replots / Dixon plot, read-out: Ki
[5] = 4-nitrophenyl acetate 0.7 mM, pH 7.4, 15 min preincubation, read-out: IC50 ± S.E.M. BCA-II

T2 sequence (P00921 whole entry): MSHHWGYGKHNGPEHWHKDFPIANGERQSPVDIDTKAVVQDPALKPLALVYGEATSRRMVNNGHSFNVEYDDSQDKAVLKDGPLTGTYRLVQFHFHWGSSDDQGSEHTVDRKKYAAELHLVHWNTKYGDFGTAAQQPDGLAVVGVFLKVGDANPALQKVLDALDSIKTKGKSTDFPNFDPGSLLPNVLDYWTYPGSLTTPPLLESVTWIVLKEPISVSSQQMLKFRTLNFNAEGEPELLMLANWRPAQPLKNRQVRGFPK
T1 sequence (P00921 whole entry): as above

SMILES | Type of Inhibition [1] | Vmax [1] | Vmax app [1] | Ki [1, 4] | IC50 [3] | IC50 [2, 5] | Ki [1] | IC50 at 48 h (MTT cytotoxicity assay) | IC50 [2]
NS(=O)(=O)c1ccc(NC(=S)NC(=O)c2ccccc2)cc1 [Compound 1, N-(4-Sulfamoylphenylcarbamothioyl)benzamide] | Noncompetitive | 99.00 (μM/L/min)^−1 | – | – | – | – | 52 nM | > 30 µM | 90 ± 7 nM
NS(=O)(=O)c1ccc(NC(=S)NC(=O)c2ccc(Cl)cc2)cc1 [Compound 2, 4-Chloro-N-(4-sulfamoylphenylcarbamothioyl)benzamide] | Noncompetitive | 80 (μM/L/min)^−1 | 18.45 | 110 nM | 210 ± 10 nM | 160 ± 2 nM | – | > 30 µM | –
Cc1ccc(C(=O)NC(=S)Nc2ccc(S(N)(=O)=O)cc2)cc1 [Compound 3, 4-Methyl-N-(4-sulfamoylphenylcarbamothioyl)benzamide] | Mixed type | 80 (μM/L/min)^−1 | 52.63 | 58 nM | 90 ± 30 nM | 80 ± 3 nM | – | > 30 µM | –
NS(=O)(=O)c1ccc(NC(=S)NC(=O)c2ccc([N+](=O)[O-])cc2)cc1 [Compound 4, 4-Nitro-N-(4-sulfamoylphenylcarbamothioyl)benzamide] | Noncompetitive | 53.19 (μM/L/min)^−1 | 18.97 | 220 nM | 240 ± 40 nM | 130 ± 2 nM | – | > 30 µM | –
NS(=O)(=O)c1ccc(NC(=S)NC(=O)c2cccc(Cl)c2)cc1 [Compound 5, 3-Chloro-N-(4-sulfamoylphenylcarbamothioyl)benzamide] | Noncompetitive | 76.33 (μM/L/min)^−1 | 25.83 | 250 nM | 280 ± 60 nM | 140 ± 6 nM | – | > 30 µM | –
NS(=O)(=O)c1ccc(NC(=S)NC(=O)c2cccc([N+](=O)[O-])c2)cc1 [Compound 6, 3-Nitro-N-(4-sulfamoylphenylcarbamothioyl)benzamide] | Mixed type | 82.64 (μM/L/min)^−1 | 17.48 | 90 nM | 190 ± 1 nM | 80 ± 4 nM | – | > 30 µM | –
NS(=O)(=O)c1ccc(NC(=S)NC(=O)c2ccccc2[N+](=O)[O-])cc1 [Compound 7, 2-Nitro-N-(4-sulfamoylphenylcarbamothioyl)benzamide] | Mixed type | 71.42 (μM/L/min)^−1 | 19.30 | 140 nM | 120 ± 2 nM | 60 ± 5 nM | – | > 30 µM | –
NS(=O)(=O)c1ccc(NC(=S)NC(=O)Cc2ccccc2)cc1 [Compound 8, 2-Phenyl-N-(4-sulfamoylphenylcarbamothioyl)acetamide] | Mixed type | 81.30 (μM/L/min)^−1 | 7.77 | 35 nM | 160 ± 1 nM | 70 ± 3 nM | – | > 30 µM | –

Second part, led by results:

Type of Inhibition [1] | Vmax [1] | Vmax app [1] | Ki [1, 4] | IC50 [3] | IC50 [2, 5] | SMILES | Ki [1] | IC50 at 48 h (MTT cytotoxicity assay) | IC50 [2]
Noncompetitive | 90.90 (μM/L/min)^−1 | 14.61 | 58 nM | 180 ± 4 nM | 80 ± 2 nM | Cc1ccccc1C(=O)NC(=S)Nc1ccc(S(N)(=O)=O)cc1 [Compound 9, 2-Methyl-N-(4-sulfamoylphenylcarbamothioyl)benzamide] | – | > 30 µM | –
Noncompetitive | 62.5 (μM/L/min)^−1 | 10.61 | 67 nM | 190 nM | 90 ± 2 nM | Cc1cccc(C(=O)NC(=S)Nc2ccc(S(N)(=O)=O)cc2)c1 [Compound 10, 3-Methyl-N-(4-sulfamoylphenylcarbamothioyl)benzamide] | – | > 30 µM | –
Noncompetitive | 88.49 (μM/L/min)^−1 | 35.21 | 280 nM | 190 ± 5 nM | 90 ± 3 nM | COc1cccc(C(=O)NC(=S)Nc2ccc(S(N)(=O)=O)cc2)c1 [Compound 11, 3-Methoxy-N-(4-sulfamoylphenylcarbamothioyl)benzamide] | – | > 30 µM | –
Mixed type | 108.69 (μM/L/min)^−1 | 34.12 | 24 nM | 460 ± 30 nM | 280 ± 7 nM | NS(=O)(=O)c1ccc(NC(=S)NC(=O)c2ccc(Cl)cc2[N+](=O)[O-])cc1 [Compound 12, 4-Chloro-2-nitro-N-(4-sulfamoylphenylcarbamothioyl)benzamide] | – | > 30 µM | –
– | – | – | – | 580 ± 1 nM | 130 ± 20 nM | NS(=O)(=O)c1ccc(NC(=S)NC(=O)c2ccc(F)cc2)cc1 [Compound 13, 4-Fluoro-N-(4-sulfamoylphenylcarbamothioyl)benzamide] | – | > 30 µM | –
– | – | – | – | 170 ± 2 nM | 60 nM | COc1cc(C(=O)NC(=S)Nc2ccc(S(N)(=O)=O)cc2)cc(OC)c1OC [Compound 14, 3,4,5-Trimethoxy-N-(4-sulfamoylphenylcarbamothioyl)benzamide] | – | > 30 µM | –
– | – | – | – | 160 ± 10 nM | 60 ± 1 nM | NS(=O)(=O)c1ccc(NC(=S)NC(=O)c2ccc([N+](=O)[O-])cc2Cl)cc1 [Compound 15, 2-Chloro-4-nitro-N-(4-sulfamoylphenylcarbamothioyl)benzamide] | – | > 30 µM | –
Noncompetitive | 72.46 (μM/L/min)^−1 | 37.31 | 400 nM | 230 ± 30 nM | 110 ± 5 nM | COc1cc(OC)cc(C(=O)NC(=S)Nc2ccc(S(N)(=O)=O)cc2)c1 [Compound 16, 3,5-Dimethoxy-N-(4-sulfamoylphenylcarbamothioyl)benzamide] | – | > 30 µM | –
Mixed type | 111.11 (μM/L/min)^−1 | 26.88 | 59 nM | 270 ± 60 nM | 120 ± 20 nM | NS(=O)(=O)c1ccc(NC(=S)NC(=O)C2CCCO2)cc1 (stereo not shown) [Compound 17, N-(4-Sulfamoylphenylcarbamothioyl)tetrahydrofuran-2-carboxamide] | – | > 30 µM | –
Mixed type | 42.73 (μM/L/min)^−1 | 12.93 | 160 nM | 250 ± 10 nM | 200 ± 1 nM | CCC(C(=O)NC(=S)Nc1ccc(S(N)(=O)=O)cc1)c1ccccc1 (stereo not shown) [Compound 18, 2-Phenyl-N-(4-sulfamoylphenylcarbamothioyl)butanamide] | – | > 30 µM | –
